Laboratory results from the NIST ThermoML archive (doi:10.1021/je900550v).

Conditions: 101.33 kPa, Liquid; for speed of sound: Pulse-echo method; for mass density: Vibrating tube method

CCCC(=O)[O-].C[NH2+]CCO [N-methyl-2-hydroxyethylammonium butanoate]
Conditions | mass density [kg/m3] | speed of sound [m/s] | viscosity [mPa·s]
308.15 K | 1032.53 | 1583.1 | 162.8
308.4 K | 1032.37 | 1582.3 | –
308.65 K | 1032.2 | 1581.5 | –
308.9 K | 1032.03 | 1580.7 | –
309.15 K | 1031.86 | 1580 | –
309.4 K | 1031.69 | 1579.2 | –
309.65 K | 1031.52 | 1578.4 | –
309.9 K | 1031.35 | 1577.6 | –
310.15 K | 1031.18 | 1576.8 | –
310.4 K | 1031.01 | 1576 | –
310.65 K | 1030.85 | 1575.3 | 141.4
310.91 K | 1030.68 | 1574.5 | –
311.16 K | 1030.51 | 1573.7 | –
311.4 K | 1030.34 | 1572.9 | –
311.65 K | 1030.17 | 1572.2 | –
311.91 K | 1030 | 1571.4 | –
312.16 K | 1029.83 | 1570.6 | –
312.41 K | 1029.65 | 1569.8 | –
312.65 K | – | – | 127.1
312.66 K | 1029.49 | 1569 | –
312.91 K | 1029.32 | 1568.3 | –
313.16 K | 1029.14 | 1567.5 | –
313.4 K | 1028.97 | 1566.7 | –
313.66 K | 1028.8 | 1565.9 | –
313.9 K | 1028.64 | 1565.2 | –
314.15 K | 1028.46 | 1564.4 | –
314.4 K | 1028.29 | 1563.6 | –
314.65 K | 1028.12 | 1562.9 | –
314.9 K | 1027.95 | 1562.1 | –
315.15 K | 1027.78 | 1561.3 | 107.78
315.41 K | 1027.61 | 1560.5 | –
315.65 K | 1027.43 | 1559.8 | –
315.91 K | 1027.26 | 1559 | –
316.16 K | 1027.09 | 1558.2 | –
316.41 K | 1026.92 | 1557.5 | –
316.66 K | 1026.75 | 1556.7 | –
316.91 K | 1026.58 | 1555.9 | –
317.16 K | 1026.41 | 1555.2 | –
317.4 K | 1026.23 | 1554.3 | –
317.66 K | 1026.06 | 1553.4 | –
317.91 K | 1025.89 | 1552.6 | –
318.15 K | – | – | 93.33
318.16 K | 1025.72 | 1551.9 | –
318.41 K | 1025.55 | 1551.1 | –
318.65 K | 1025.37 | 1550.3 | –
318.9 K | 1025.2 | 1549.5 | –
319.16 K | 1025.03 | 1548.7 | –
319.41 K | 1024.86 | 1548 | –
319.65 K | 1024.69 | 1547.2 | –
319.91 K | 1024.51 | 1546.4 | –
320.15 K | – | – | 79.57
320.16 K | 1024.34 | 1545.6 | –
320.41 K | 1024.17 | 1544.8 | –
320.65 K | 1024 | 1544 | –
320.91 K | 1023.82 | 1543.3 | –
321.15 K | 1023.65 | 1542.5 | –
321.41 K | 1023.47 | 1541.7 | –
321.66 K | 1023.3 | 1540.9 | –
321.9 K | 1023.13 | 1540.1 | –
322.15 K | 1022.96 | 1539.3 | –
322.41 K | 1022.78 | 1538.6 | –
322.65 K | 1022.61 | 1537.8 | –
322.91 K | 1022.43 | 1537 | –
323.15 K | – | – | 71.53
323.16 K | 1022.26 | 1536.2 | –
323.41 K | 1022.08 | 1535.4 | –
323.65 K | 1021.91 | 1534.7 | –
323.91 K | 1021.74 | 1533.9 | –
324.16 K | 1021.56 | 1533.1 | –
324.41 K | 1021.39 | 1532.3 | –
324.65 K | 1021.22 | 1531.5 | –
324.9 K | 1021.04 | 1530.8 | –
325.16 K | 1020.87 | 1530 | –
325.4 K | 1020.69 | 1529.2 | –
325.66 K | 1020.52 | 1528.4 | –
325.9 K | 1020.35 | 1527.7 | –
326.16 K | 1020.17 | 1526.9 | –
326.41 K | 1019.99 | 1526.1 | –
326.66 K | 1019.82 | 1525.3 | –
326.9 K | 1019.65 | 1524.5 | –
327.16 K | 1019.47 | 1523.7 | –
327.4 K | 1019.29 | 1522.9 | –
327.66 K | 1019.12 | 1522.2 | –
327.9 K | 1018.95 | 1521.4 | –
328.15 K | 1018.77 | 1520.6 | –
328.41 K | 1018.6 | 1519.8 | –
328.66 K | 1018.42 | 1519 | –
328.9 K | 1018.25 | 1518.2 | –
329.16 K | 1018.07 | 1517.4 | –
329.4 K | 1017.9 | 1516.6 | –
329.65 K | 1017.72 | 1515.9 | –
329.9 K | 1017.54 | 1515.1 | –
330.16 K | 1017.37 | 1514.3 | –
330.41 K | 1017.19 | 1513.5 | –
330.66 K | 1017.01 | 1512.7 | –
330.91 K | 1016.84 | 1511.9 | –
331.16 K | 1016.66 | 1511.1 | –
331.41 K | 1016.48 | 1510.3 | –
331.66 K | 1016.3 | 1509.6 | –
331.91 K | 1016.13 | 1508.8 | –
332.16 K | 1015.96 | 1508 | –
332.41 K | 1015.78 | 1507.2 | –
332.66 K | 1015.6 | 1506.4 | –
332.91 K | 1015.43 | 1505.6 | –
333.16 K | 1015.25 | 1504.9 | –
333.41 K | 1015.07 | 1504.1 | –
333.66 K | 1014.89 | 1503.3 | –
333.91 K | 1014.72 | 1502.5 | –
334.16 K | 1014.54 | 1501.7 | –
334.41 K | 1014.36 | 1500.9 | –
334.66 K | 1014.18 | 1500.2 | –
334.91 K | 1014.01 | 1499.4 | –
335.16 K | 1013.83 | 1498.6 | –
335.41 K | 1013.65 | 1497.8 | –
335.66 K | 1013.47 | 1497 | –
335.91 K | 1013.3 | 1496.2 | –
336.16 K | 1013.12 | 1495.4 | –
336.41 K | 1012.94 | 1494.7 | –
336.66 K | 1012.76 | 1493.9 | –
336.9 K | 1012.58 | 1493.1 | –
337.16 K | 1012.4 | 1492.3 | –
337.4 K | 1012.22 | 1491.5 | –
337.66 K | 1012.04 | 1490.8 | –
337.9 K | 1011.86 | 1490 | –
338.15 K | 1011.69 | 1489.3 | –
